Reference: PMC12647759 (Scientific Reports, 2025)
pIC50: −log10 of the molar value.

Molecular target: T1, human PLCβ4 (Homo sapiens, UniProt Q15147)
T1 construct: expressing the full-length polypeptides of human PLCε, PLCβ4, PLCδ1 and PLCγ1 as FLAG fusions; made in house; host or cells: Expi293F cells
T1 sequence (Q15147 1-1175): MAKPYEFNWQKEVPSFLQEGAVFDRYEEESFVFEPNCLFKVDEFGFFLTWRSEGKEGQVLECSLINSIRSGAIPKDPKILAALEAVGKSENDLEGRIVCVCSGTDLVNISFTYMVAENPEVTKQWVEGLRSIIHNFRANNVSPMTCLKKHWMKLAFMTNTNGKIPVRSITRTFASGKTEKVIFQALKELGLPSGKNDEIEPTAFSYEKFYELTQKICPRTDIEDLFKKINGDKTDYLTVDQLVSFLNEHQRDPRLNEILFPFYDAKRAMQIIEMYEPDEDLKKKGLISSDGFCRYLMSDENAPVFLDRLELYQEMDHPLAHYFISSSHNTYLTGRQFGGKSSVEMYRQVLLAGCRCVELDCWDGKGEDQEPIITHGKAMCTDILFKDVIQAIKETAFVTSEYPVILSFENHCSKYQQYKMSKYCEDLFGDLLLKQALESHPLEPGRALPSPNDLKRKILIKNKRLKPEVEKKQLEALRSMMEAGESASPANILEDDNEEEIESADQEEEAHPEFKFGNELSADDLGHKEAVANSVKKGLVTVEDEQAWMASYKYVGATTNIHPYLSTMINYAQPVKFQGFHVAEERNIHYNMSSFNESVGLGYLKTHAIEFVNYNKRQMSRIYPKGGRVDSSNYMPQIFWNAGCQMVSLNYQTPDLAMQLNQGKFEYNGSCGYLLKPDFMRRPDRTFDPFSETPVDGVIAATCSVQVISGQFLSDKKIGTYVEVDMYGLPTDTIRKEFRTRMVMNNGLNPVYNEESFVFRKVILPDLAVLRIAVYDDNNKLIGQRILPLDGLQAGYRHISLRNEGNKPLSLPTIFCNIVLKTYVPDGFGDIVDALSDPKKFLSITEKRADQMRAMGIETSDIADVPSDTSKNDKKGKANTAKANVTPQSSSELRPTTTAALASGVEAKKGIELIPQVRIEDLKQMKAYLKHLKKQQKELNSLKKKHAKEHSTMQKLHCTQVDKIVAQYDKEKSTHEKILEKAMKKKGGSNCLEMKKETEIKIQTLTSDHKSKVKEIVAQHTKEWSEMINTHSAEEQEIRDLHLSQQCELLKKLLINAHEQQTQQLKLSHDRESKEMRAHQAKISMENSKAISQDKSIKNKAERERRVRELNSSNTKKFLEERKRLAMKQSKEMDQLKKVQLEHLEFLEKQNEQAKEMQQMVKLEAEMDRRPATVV
Assay: In vitro PLC assay using fluorogenic substrate Compound 1, PLCβ4
Assay type: biochemical
Details: for pIC50: purified PLCβ4, fluorogenic substrate Compound 1, read-out: IC50, inhibition of PLCβ4 (hydrolysis of Compound 1)
Description: Ten µl of 2 × substrate solutions (50 mM HEPES pH7.2, 200 mM NaCl, 0.2 mM CaCl2, 0.4 mM DTT, 0.4 µM EDTA, 0.02% gelatin, 0.2% sodium cholate and 60 µM Compound 1) were added to each well of a 384-well plate (CONING #3573) containing 10 µl of purified PLCε (120 ng) and incubated with shaking at 30 °C for 3 h. After terminating the reaction by the addition of 2 µl of 5 mM EDTA, the fluorescence emission was measured at 520 nm with the excitation at 485 nm by a microplate reader (POLARstar Omega-25). For measuring inhibition by compounds for HTS, the reactions were conducted at RIKEN Center for Sustainable Resource Science (CSRS) as described above except that 5 µl of compound solution and 5 µl of purified PLCe (120 ng) were added to each well. Solution dispensing and fluorescence detection were conducted by using an automated dispenser (EDR-384, Biotec) and a hybrid multi-mode microplate reader (Synergy H4, Biotec), respectively. For determination of the IC50 values for ZPT and Zn^2+, the EDTA concentration was reduced to one-tenth to avoid its zinc-chelating effect. For assay of the other PLC classes, the reactions were performed similarly except that PLCβ4 (5 ng), PLCδ1 (0.1 ng) or PLCγ1 (0.3 ng) was used instead of PLCε.

Structure (SMILES): COc1ccc2c(c[n+](C)c3c4cc5c(cc4ccc23)OCO5)c1OC [chelerythrine]
- pIC50: 4.40

Structure (SMILES): O=S(=O)([O-])[O-].[Zn+2] [ZnSO4]
- inhibitory activity toward PLCβ (Compound 1 as substrate, varying concentrations): without exhibiting any noticeable inhibitory activities

Structure (SMILES): CCCCCCOc1ccc2c(c1)Oc1cc(OP(=O)(O)O[C@H]3[C@H](O)[C@@H](O)[C@H](OP(=O)(O)O)[C@@H](O)[C@H]3O)ccc1C21OC(=O)c2ccccc21 (stereo partly shown) [compound 1]
- pIC50: 5.43

Structure (SMILES): C[n+]1cc2c3c(ccc2c2ccc4cc5c(cc4c21)OCO5)OCO3 [Sanguinarine, sanguinarine]
- pIC50: 4.10
